According to ChEMBL document CHEMBL5120959, “Pyrrospirones K-Q, Decahydrofluorene-Class Alkaloids from the Marine-Derived Fungus Penicillium sp. SCSIO 41512” (J Nat Prod, 2022):
pIC50: −log10 of the molar value. In brackets after ≈: the same amount, converted by molar mass.

How the values were obtained:
[1] = biological target: Tyrosine-protein phosphatase non-receptor type 6 (Homo sapiens, UniProt P29350); experiment: Inhibition of human SHP1
[2] = biological target: T1, Receptor-type tyrosine-protein phosphatase C (Homo sapiens, UniProt P08575); experiment: Inhibition of human CD45
T1 sequence (P08575 whole entry): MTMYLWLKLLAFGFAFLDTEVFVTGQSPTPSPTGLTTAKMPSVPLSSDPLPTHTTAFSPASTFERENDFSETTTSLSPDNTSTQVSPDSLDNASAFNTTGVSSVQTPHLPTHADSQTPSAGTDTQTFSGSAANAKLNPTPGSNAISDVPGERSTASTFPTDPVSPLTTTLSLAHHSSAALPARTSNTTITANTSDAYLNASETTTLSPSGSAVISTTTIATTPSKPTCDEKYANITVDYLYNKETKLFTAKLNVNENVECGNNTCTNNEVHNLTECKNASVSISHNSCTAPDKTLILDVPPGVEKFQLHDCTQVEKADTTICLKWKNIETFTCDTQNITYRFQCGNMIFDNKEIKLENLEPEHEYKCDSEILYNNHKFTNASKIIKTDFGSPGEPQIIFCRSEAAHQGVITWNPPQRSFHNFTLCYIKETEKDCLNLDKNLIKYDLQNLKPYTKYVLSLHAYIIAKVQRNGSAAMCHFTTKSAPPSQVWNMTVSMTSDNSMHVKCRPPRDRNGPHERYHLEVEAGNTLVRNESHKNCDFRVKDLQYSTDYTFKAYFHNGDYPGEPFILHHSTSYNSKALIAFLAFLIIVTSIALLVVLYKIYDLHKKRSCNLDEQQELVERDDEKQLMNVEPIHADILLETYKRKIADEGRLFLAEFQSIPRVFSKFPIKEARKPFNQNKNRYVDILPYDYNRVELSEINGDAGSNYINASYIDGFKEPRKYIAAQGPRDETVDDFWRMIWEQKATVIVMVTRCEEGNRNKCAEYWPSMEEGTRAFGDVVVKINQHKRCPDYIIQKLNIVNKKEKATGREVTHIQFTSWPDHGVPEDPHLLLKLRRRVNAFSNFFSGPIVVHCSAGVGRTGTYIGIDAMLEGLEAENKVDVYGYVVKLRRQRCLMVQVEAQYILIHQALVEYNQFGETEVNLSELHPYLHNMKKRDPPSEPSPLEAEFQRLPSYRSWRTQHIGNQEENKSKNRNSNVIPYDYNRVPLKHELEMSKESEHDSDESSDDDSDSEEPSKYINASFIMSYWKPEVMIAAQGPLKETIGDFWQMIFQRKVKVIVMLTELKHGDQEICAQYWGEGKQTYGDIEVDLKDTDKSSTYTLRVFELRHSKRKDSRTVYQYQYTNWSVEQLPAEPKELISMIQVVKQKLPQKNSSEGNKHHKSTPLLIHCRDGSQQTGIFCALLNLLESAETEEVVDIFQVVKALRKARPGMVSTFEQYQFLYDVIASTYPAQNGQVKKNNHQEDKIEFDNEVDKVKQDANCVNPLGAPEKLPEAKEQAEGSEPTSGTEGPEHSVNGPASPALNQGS

[3] = biological target: T2, Tyrosine-protein phosphatase non-receptor type 1 (Homo sapiens, UniProt P18031); experiment: Inhibition of human PTP1B
T2 sequence (P18031 whole entry): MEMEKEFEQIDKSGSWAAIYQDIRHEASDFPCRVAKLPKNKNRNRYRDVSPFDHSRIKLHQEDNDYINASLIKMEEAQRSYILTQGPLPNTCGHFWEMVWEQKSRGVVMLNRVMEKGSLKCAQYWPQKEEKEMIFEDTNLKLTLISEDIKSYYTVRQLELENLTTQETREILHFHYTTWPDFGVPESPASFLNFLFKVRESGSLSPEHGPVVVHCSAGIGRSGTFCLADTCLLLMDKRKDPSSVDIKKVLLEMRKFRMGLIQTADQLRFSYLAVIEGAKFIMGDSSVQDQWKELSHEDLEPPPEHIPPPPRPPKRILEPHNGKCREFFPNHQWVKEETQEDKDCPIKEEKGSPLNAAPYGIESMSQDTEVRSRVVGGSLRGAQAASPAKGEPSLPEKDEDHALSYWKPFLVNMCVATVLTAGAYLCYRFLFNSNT

[4] = biological target: T3, Tyrosine-protein phosphatase non-receptor type 2 (Homo sapiens, UniProt P17706); experiment: Inhibition of human TCPTP
T3 sequence (P17706 whole entry): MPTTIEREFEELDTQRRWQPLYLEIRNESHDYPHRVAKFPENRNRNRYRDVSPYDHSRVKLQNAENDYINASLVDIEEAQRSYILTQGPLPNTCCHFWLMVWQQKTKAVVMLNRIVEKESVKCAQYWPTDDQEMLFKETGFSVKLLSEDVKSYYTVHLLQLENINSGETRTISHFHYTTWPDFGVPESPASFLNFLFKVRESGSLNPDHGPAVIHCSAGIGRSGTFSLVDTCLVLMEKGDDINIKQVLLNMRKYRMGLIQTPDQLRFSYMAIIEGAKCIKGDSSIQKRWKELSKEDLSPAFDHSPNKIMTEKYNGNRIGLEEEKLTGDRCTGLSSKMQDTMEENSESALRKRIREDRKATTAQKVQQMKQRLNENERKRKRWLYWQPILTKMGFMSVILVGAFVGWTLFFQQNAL

[5] = biological target: Receptor-type tyrosine-protein phosphatase F (Homo sapiens, UniProt P10586); experiment: Inhibition of human LAR
Sequence of Receptor-type tyrosine-protein phosphatase F (P10586 whole entry): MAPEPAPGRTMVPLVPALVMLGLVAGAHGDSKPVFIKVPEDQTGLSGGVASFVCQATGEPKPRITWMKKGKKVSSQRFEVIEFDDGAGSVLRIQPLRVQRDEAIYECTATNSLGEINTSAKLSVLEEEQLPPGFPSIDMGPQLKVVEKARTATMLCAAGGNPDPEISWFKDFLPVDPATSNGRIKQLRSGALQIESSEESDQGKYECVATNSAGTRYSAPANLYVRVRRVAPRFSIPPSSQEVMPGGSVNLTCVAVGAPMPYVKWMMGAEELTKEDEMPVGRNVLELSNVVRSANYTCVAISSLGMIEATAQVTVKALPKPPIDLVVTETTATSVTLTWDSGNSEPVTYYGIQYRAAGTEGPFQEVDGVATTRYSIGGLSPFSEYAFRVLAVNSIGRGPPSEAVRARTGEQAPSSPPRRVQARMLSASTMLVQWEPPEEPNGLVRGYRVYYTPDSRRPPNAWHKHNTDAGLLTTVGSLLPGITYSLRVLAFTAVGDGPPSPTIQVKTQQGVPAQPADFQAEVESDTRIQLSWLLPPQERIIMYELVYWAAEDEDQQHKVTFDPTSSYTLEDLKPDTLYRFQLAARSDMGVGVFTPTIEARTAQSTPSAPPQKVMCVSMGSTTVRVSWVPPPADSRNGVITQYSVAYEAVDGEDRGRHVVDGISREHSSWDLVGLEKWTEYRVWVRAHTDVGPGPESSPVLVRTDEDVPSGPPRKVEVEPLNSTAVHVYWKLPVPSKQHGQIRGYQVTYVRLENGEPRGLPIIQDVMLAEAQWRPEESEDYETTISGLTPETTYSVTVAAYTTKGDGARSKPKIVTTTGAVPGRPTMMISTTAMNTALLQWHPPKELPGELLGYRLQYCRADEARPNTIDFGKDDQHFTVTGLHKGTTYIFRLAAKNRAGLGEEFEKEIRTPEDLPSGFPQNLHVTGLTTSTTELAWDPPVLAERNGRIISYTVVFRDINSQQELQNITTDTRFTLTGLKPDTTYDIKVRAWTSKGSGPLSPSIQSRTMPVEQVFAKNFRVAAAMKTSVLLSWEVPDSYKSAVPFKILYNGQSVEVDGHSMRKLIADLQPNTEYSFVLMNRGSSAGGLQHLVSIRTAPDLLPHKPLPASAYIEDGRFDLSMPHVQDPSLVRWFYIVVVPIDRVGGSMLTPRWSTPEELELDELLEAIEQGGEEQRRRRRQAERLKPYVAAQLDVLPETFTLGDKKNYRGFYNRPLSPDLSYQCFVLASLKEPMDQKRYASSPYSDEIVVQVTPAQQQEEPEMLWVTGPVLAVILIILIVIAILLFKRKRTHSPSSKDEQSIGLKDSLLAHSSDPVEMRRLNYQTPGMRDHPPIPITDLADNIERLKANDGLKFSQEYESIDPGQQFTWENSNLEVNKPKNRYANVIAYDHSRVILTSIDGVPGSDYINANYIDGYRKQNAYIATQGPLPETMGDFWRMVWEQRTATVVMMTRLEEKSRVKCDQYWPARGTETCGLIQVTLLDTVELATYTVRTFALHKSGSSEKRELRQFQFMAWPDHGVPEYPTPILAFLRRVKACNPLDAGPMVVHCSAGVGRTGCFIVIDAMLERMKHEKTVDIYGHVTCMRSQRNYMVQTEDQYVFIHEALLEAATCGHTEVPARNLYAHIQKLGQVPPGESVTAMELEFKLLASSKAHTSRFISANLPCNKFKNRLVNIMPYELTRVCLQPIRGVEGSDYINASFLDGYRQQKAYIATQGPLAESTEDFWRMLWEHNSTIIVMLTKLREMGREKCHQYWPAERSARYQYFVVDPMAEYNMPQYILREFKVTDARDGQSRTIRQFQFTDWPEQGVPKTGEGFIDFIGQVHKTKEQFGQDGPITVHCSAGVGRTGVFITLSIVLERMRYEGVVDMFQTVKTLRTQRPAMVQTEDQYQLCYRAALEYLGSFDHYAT

NCI-H1975 = experiment: Cytotoxicity against human NCI-H1975 cells assessed as reduction in cell viability after 24 hrs by CCK8 assay; format: functional, cell-based; details: NCI-H1975, 24 h
Bacillus subtilis = experiment: Antibacterial activity against Bacillus subtilis BS01 assessed as reduction in microbial growth after 12 hrs by microbroth dilution method; format: functional
[6] = system: Bacillus amyloliquefaciens; experiment: Antibacterial activity against Bacillus amyloliquefaciens GDMCC 60233 assessed as reduction in microbial growth after 12 hrs by microbroth dilution method; format: functional
Escherichia coli [7] = experiment: microbe, parasite or virus in culture; format: functional; details: ATCC 25922, time 12 hrs
Description: Antibacterial activity against Escherichia coli ATCC 25922 assessed as reduction in microbial growth after 12 hrs by microbroth dilution method

Staphylococcus aureus [8] = experiment: Antibacterial activity against Staphylococcus aureus ATCC 6538 assessed as reduction in microbial growth after 12 hrs by microbroth dilution method; format: functional
Staphylococcus aureus [9] = experiment: Antibacterial activity against methicillin-resistant Staphylococcus aureus assessed as reduction in microbial growth after 12 hrs by microbroth dilution method; format: functional
Streptococcus agalactiae = experiment: Antibacterial activity against Streptococcus agalactiae ATCC 13813 assessed as reduction in microbial growth after 12 hrs by microbroth dilution method; format: functional
Escherichia coli [10] = experiment: Antibacterial activity against Escherichia coli assessed as reduction in microbial growth after 12 hrs by broth microdilution method; format: functional
Staphylococcus aureus [11] = experiment: Antibacterial activity against methicillin-resistant Staphylococcus aureus assessed as reduction in microbial growth after 12 hrs by broth microdilution method; format: functional

Sequence of Tyrosine-protein phosphatase non-receptor type 6 (P29350 whole entry): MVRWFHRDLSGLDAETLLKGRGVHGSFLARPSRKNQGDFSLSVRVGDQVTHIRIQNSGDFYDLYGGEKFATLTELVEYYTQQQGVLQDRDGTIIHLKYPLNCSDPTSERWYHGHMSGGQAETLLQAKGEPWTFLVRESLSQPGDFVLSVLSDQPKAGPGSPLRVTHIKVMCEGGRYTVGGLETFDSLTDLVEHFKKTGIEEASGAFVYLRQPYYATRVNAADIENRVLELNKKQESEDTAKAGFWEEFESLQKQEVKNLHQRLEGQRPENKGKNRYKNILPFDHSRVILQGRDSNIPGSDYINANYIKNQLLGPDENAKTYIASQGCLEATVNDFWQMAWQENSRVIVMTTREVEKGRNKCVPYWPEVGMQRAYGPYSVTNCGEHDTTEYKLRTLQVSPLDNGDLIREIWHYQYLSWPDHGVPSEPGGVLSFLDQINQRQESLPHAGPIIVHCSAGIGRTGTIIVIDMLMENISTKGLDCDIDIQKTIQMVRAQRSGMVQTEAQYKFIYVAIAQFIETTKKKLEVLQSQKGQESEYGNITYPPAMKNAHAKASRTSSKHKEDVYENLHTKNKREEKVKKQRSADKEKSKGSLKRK

SMILES	pIC50 [1]	pIC50 [2]	pIC50 [3]	pIC50 [4]	pIC50 [5]	pIC50 (NCI-H1975)	MIC (Bacillus subtilis) [µg/mL]	MIC [6] [µg/mL]	MIC (Escherichia coli [7]) [µg/mL]	MIC (Staphylococcus aureus [8]) [µg/mL]	MIC (Staphylococcus aureus [9]) [µg/mL]	MIC (Streptococcus agalactiae) [µg/mL]	MIC (Escherichia coli [10]) [µg/mL]	MIC (Staphylococcus aureus [11]) [µg/mL]
CC(=O)[C@@H]1[C@@H]2[C@H](Oc3ccc(cc3)C[C@]3(O)C[C@]4(C[C@@H](O)[C@](C)(C=O)[C@@H]2C4=O)C(=O)N3)[C@@H]2[C@@H](C)C[C@@H](C)C[C@]21C	< 3.70	< 3.70	< 3.70	< 3.70	< 3.70	< 4.10	100	100	100 (≈ 181 µM)	> 100	> 100	> 100	–	–
CO[C@@H]1C2Cc3ccc(cc3)O[C@H]3[C@@H]4[C@H]5C(=O)[C@@]1(C[C@@H](O)[C@@]5(C)C=C(C)[C@H]4[C@]1(C)C[C@H](C)C[C@H](C)[C@@H]31)C(=O)N2	4.00	< 3.70	4.00	< 3.70	< 3.70	–	10	20	5 (≈ 9.37 µM)	20	20	20	2	2
C=C[C@@]1(C)C=C(C)[C@@H]2[C@@H]3[C@@H](Oc4ccc(cc4)C[C@@]4(O)C/C(=C(/O)[C@H]31)C(=O)N4)[C@@H]1[C@@H](C)C[C@@H](C)C[C@]12C	4.00	4.00	4.05	4.04	< 3.70	4.14	10	20	20 (≈ 39.7 µM)	20	20	20	–	–
CO[C@@H]1/C2=C3\O[C@@H](C)[C@@]4(C)C=C(C)[C@@H]5[C@H]([C@H](Oc6ccc(cc6)C[C@]1(O)NC2=O)[C@@H]1[C@@H](C)C[C@@H](C)C[C@]15C)[C@@H]34	4.20	3.72	4.41	4.10	< 3.70	4.26	–	–	–	–	–	–	–	–
CN[C@@H]1[C@@H](O)[C@@H](O[C@@H]2[C@@H](O)[C@H](O[C@H]3O[C@H](CN)CC[C@H]3N)[C@@H](N)C[C@H]2N)OC[C@]1(C)O.O=S(=O)(O)O	–	–	–	–	–	–	0.5	1	–	2	5	10	–	–
CC1=C[C@@]2(C)[C@@H]3C(=O)[C@@]4(C[C@@H]2O)C(=O)NC(Cc2ccc(cc2)O[C@H]2[C@H]3[C@@H]1[C@]1(C)C[C@H](C)C[C@H](C)[C@@H]21)[C@H]4O	3.70	< 3.70	4.00	< 3.70	< 3.70	–	10	20	5 (≈ 9.62 µM)	10	10	10	2	2
C=C[C@@]1(C)C=C(C)[C@@H]2[C@@H]3[C@H](Oc4ccc(cc4)C[C@@H]4C(=O)NC(=O)[C@@H]4C(=O)[C@H]31)[C@@H]1[C@@H](C)C[C@@H](C)C[C@]12C	–	5.09	4.60	4.85	< 3.70	4.12	20	50	50 (≈ 99.7 µM)	100	50	100	–	–
C[C@@H]1C[C@H](C)[C@H]2[C@H]3Oc4ccc(cc4)C[C@]4(O)C[C@]5(C[C@H](O)OO[C@@]6(C)[C@H]7O[C@@]7(C)[C@H]([C@H]3[C@H]6C5=O)[C@]2(C)C1)C(=O)N4	< 3.70	< 3.70	< 3.70	< 3.70	< 3.70	< 4.10	50	50	50 (≈ 88.1 µM)	50	50	50	–	–
CO[C@@]12Cc3ccc(cc3)O[C@H]3[C@@H]4[C@H]5C(=O)[C@](C[C@H](O)OO[C@@]5(C)[C@H]5O[C@@]5(C)[C@H]4[C@]4(C)C[C@H](C)C[C@H](C)[C@@H]34)(C1)C(=O)N2	< 3.70	< 3.70	< 3.70	< 3.70	< 3.70	< 4.10	50	50	50 (≈ 86 µM)	50	50	50	–	–
CO[C@@H]1C2Cc3ccc(cc3)O[C@H]3[C@@H]4[C@H]5C(=O)[C@@]1(C[C@H](O)[C@@]5(C)C=C(C)[C@H]4[C@]1(C)C[C@H](C)C[C@H](C)[C@@H]31)C(=O)N2	4.10	< 3.70	4.18	< 3.70	< 3.70	–	50	100	50 (≈ 93.7 µM)	100	100	100	2	2
CO[C@@]12Cc3ccc(cc3)O[C@H]3[C@H]([C@H]4C(=O)[C@](C[C@@H](O)[C@]4(C)C=O)(C1)C(=O)N2)[C@@H](C(C)=O)[C@]1(C)C[C@H](C)C[C@H](C)[C@@H]31	4.00	< 3.70	4.24	3.89	< 3.70	–	100	100	100 (≈ 177 µM)	> 100	> 100	> 100	–	–
CO[C@@H]1C2Cc3ccc(cc3)O[C@H]3[C@H]4[C@@H](C(C)=C[C@]5(C)CC[C@@]1(C(=O)N2)C(=O)[C@H]45)[C@]1(C)C[C@H](C)C[C@H](C)[C@@H]31	–	–	–	–	–	–	> 100	> 100	> 100	> 100	> 100	> 100	–	–
C[C@@H]1C[C@H](C)[C@H]2[C@H]3Oc4ccc(cc4)C[C@]4(O)C/C(=C(/O)[C@H]5[C@H](C)[C@H]6O[C@@]6(C)[C@H]([C@H]35)[C@]2(C)C1)C(=O)N4	–	–	–	–	–	–	20	20	20 (≈ 40.5 µM)	50	50	50	–	–
CC(=O)c1ccc(NC2=C(Cl)C(=O)c3ccccc3C2=O)cc1	6.54	–	–	–	–	–	–	–	–	–	–	–	–	–
